Reference: patent US11731967B2, “Inhibitors of TRIM33 and methods of use” (Dana-Farber Cancer Institute, Inc., priority 2017, dated 2023)
pIC50: −log10 of the molar value. Read-outs that look alike come from different tables or passages of the source.

Experiments:
[1] = target: T1, recombinant PHD-bromodomain module of TRIM33 (Homo sapiens, UniProt Q9UPN9); assay: AlphaScreen binding assay, TRIM33 with biotinylated H3K9me3K18ac peptide
T1 construct: rows headed: TRIM33 modulating activity; unit not given
T1 sequence (Q9UPN9 1-1127): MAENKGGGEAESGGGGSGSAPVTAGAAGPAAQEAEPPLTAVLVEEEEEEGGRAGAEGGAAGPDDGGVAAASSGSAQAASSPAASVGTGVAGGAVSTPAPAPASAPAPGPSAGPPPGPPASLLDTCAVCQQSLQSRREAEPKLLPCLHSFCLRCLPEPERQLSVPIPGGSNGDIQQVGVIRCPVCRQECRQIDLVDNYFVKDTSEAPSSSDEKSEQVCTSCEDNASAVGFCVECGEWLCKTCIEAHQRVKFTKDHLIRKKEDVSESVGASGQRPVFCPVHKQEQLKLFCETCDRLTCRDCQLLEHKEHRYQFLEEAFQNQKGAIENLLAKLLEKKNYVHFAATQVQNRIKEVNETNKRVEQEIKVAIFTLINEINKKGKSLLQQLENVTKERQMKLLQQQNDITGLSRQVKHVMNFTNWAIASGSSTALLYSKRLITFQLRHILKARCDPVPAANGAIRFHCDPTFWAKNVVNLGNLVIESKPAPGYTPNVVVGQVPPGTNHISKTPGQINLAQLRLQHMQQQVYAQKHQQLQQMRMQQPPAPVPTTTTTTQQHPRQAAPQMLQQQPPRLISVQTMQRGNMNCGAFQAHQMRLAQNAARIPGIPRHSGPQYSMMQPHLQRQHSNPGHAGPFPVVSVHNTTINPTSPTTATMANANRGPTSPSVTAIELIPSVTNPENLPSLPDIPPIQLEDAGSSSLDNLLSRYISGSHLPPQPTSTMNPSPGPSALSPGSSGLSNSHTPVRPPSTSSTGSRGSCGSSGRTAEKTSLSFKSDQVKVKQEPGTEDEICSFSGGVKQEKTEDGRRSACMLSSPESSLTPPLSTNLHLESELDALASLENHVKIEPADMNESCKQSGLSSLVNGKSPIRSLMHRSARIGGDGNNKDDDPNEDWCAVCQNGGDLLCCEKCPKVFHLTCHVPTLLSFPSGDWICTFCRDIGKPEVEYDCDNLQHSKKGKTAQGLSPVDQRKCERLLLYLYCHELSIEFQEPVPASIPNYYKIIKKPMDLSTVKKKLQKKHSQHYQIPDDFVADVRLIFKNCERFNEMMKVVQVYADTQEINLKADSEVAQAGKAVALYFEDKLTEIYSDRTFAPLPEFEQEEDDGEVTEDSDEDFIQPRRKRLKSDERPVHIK
From the text: (§1) The IC50 or EC50 of the compound of the present application can be determined by various methods known in the art. For example, the IC50 or EC50 of the compound of the present application can be measured by an AlphaScreen assay, as described herein (see FIG. 1).
(§2) A compound of the present application can be tested for its TRIM33 and/or TRIM24 activity with AlphaScreen Assay illustrated in FIG. 1.
(§3) Additionally, a second AlphaScreen® binding assay for TRIM24 as counter-screening assay for selectivity of TRIM33 over TRIM24 was developed. A focused compound libraries for TRIM33 inhibitor development was designed and synthesized using the design principle that is to connect the bromodomain binding motif/fragment to proper chemical scaffold via multi-component reactions, such as Groebke-Blackburn-Bienaymé (GBB) coupling reaction, to establish chemically bias library.
(§4) With multiple libraries synthesized (˜400 compounds) as described above, compounds were screened against TRIM33 and TRIM24 by AlphaScreen to establish structure activity relationship (SAR).

[2] = test system: recombinant PHD-bromodomain module of TRIM33; assay: as above; conditions: compounds shown in Table 2a
From the text: as §1, §2, §3, §4

TRIM24 = target: T2, TRIM24 (Homo sapiens, UniProt O15164); assay: AlphaScreen binding assay for TRIM24 (counter-screening assay)
T2 sequence (O15164 1-1050): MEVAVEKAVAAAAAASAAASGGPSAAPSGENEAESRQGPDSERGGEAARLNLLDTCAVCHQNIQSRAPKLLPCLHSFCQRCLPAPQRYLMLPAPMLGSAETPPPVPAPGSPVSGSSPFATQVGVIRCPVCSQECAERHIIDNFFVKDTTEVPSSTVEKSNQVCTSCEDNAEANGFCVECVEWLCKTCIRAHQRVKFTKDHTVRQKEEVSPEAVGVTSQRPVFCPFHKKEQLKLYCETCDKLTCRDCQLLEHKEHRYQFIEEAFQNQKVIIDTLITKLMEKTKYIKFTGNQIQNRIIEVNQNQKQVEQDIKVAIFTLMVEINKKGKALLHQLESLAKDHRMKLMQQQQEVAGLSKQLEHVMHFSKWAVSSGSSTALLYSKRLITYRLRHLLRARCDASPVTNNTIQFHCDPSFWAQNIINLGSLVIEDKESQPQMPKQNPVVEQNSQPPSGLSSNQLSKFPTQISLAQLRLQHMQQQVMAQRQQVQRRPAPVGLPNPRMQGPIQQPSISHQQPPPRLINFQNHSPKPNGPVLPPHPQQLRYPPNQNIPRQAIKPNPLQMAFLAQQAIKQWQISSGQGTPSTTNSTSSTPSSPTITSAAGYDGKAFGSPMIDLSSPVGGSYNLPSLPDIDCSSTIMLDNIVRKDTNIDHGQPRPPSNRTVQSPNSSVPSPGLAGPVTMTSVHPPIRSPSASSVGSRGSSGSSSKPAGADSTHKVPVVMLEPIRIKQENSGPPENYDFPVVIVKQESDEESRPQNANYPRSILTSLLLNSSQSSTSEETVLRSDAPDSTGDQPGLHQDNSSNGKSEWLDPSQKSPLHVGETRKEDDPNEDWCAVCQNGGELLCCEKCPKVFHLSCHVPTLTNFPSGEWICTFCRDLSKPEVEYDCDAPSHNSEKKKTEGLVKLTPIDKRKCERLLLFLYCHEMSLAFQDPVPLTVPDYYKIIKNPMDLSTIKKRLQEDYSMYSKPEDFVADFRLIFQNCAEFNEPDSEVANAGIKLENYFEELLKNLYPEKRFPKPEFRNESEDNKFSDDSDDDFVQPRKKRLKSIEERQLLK
From the text: as §2, §3, §4

[3] = compounds shown in Table 2a, called TRIM33 IC50 in title of Table 5, unit inferred, read-out: TRIM33 modulating activity
[4] = compounds with R7/R7′ shown in FIG. 11A (Table 6), read-out: IC50 TRIM33
[5] = compounds with R7/R7′ shown in FIG. 11A (Table 6), read-out: IC50 TRIM24
[6] = compounds shown in FIG. 14A (Table 8), read-out: TRIM 33 IC50
[7] = compounds shown in FIG. 13A (Table 7), read-out: TRIM 33 IC50
[8] = compounds shown in FIG. 13A (Table 7), read-out: TRIM 24 IC50
[9] = compounds shown in FIG. 14A (Table 8), read-out: TRIM 24 IC50

pIC50 [1, 3]	Ratio of TRIM24 IC50 over TRIM33 IC50 [2]	Compound	also measured
5.87	32.77	COc1ccc(CCNc2c(-c3c[nH]c(C)n3)nc3ccccn23)cc1OC [Compound A2]	–
3.57	–	COc1ccc(CCNc2c(-c3c[nH]c(C)n3)nc3cnccn23)cc1OC [Compound A8]	–
3.54	321.31	COCCNc1c(-c2c[nH]c(C)n2)nc2cnccn12 [Compound A9]	–
3.93	0.78	Cc1[nH]cnc1-c1nc2cnccn2c1NC1CCCCC1 [Compound B7]	–
4.35	1276.41	COc1ccc(CCNc2c(-c3nc[nH]c3C)nc3cnccn23)cc1OC [Compound B8]	pIC50 [1, 4]: 6.55; pIC50 (TRIM24; [5]): 6.65
4.60	60.92	COc1ccc(CCNc2c(-c3ccc4nccn4c3)nc3ccccn23)cc1OC [Compound C2]	–
3.86	20.66	CCCOc1ccn2c(C(C)=O)cc(-c3nc4cnccn4c3NCCOC)c2c1 [Compound D9]	–
5.46	18.38	COc1ccc(CCNc2c(-c3c[nH]c(C)n3)nc3ccc(Br)cn23)cc1OC [Compound E8]	–
4.74	7.89	COC(=O)c1ccc2nc(-c3nc[nH]c3C)c(NC3CCCCC3)n2c1 [Compound F1]	–
4.90	29.84	COC(=O)c1ccc2nc(-c3nc[nH]c3C)c(NCCc3ccc(OC)c(OC)c3)n2c1 [Compound F2]	–
4.36	11.61	COCCNc1c(-c2nc[nH]c2C)nc2ccc(C(=O)OC)cn12 [Compound F3]	–
4.43	3.62	COCCNc1c(-c2nc[nH]c2C)nc2ccc(Br)cn12 [Compound F9]	–
4.58	4.48	Cc1[nH]cnc1-c1nc2ccc(Br)cn2c1NCCN1CCOCC1 [Compound F10]	–
3.45	78.61	COCCNc1c(-c2ccc3nccn3c2)nc2ccc(C(=O)OC)cn12 [Compound G3]	–
3.92	0.83	Brc1ccc2nc(-c3ccc4nccn4c3)c(NC3CCCCC3)n2c1 [Compound G7]	–
3.67	6.43	Brc1ccc2nc(-c3ccc4nccn4c3)c(NCCN3CCOCC3)n2c1 [Compound G10]	–
4.49	7.82	CCCOc1ccn2c(C(C)=O)cc(-c3nc4ccc(C(=O)OC)cn4c3NC3CCCCC3)c2c1 [Compound H1]	–

pIC50 [1, 3]	Ratio of TRIM24 IC50 over TRIM33 IC50 [2]	Compound	also measured
4.91	463.20	CCCOc1ccn2c(C(C)=O)cc(-c3nc4ccc(C(=O)OC)cn4c3NCCc3ccc(OC)c(OC)c3)c2c1 [Compound H2]	–
4.11	37.43	CCCOc1ccn2c(C(C)=O)cc(-c3nc4ccc(C(=O)OC)cn4c3NCCOC)c2c1 [Compound H3]	–
4.29	–	CCCOc1ccn2c(C(C)=O)cc(-c3ccccc3S(C)(=O)=O)c2c1 [GS-A, reference compound]	–
4.98	–	CCCOc1cc(OCCCCN(C)C)cc(Oc2cc3c(cc2NS(=O)(=O)c2ccc(OC)c(OC)c2)n(C)c(=O)n3C)c1 [IACS9571, reference compound]	pIC50 [1, 6]: 5.20; pIC50 [1, 4]: 4.87
–	–	Cc1sc2c(c1C)C(c1ccc(Cl)cc1)=N[C@@H](CC(=O)NCCCCCCCCNC(=O)COc1cccc3c1C(=O)N(C1CCC(=O)NC1=O)C3=O)c1nnc(C)n1-2 (stereo partly drawn) [dBET6, reference compound]	pIC50 [1, 4]: 5.33; pIC50 (TRIM24; [5]): 5.71
–	–	Cc1[nH]cnc1-c1nc2ccccn2c1NCCN1CCOCC1 [pck-9295-013]	pIC50 [1, 7]: 5.42; pIC50 (TRIM24; [8]): 6.13
–	–	COc1ccc(Nc2c(-c3nc[nH]c3C)nc3ccccn23)cc1 [pck-9295-014]	pIC50 [1, 7]: 6.19; pIC50 (TRIM24; [8]): 6.45
–	–	COc1ccc(Nc2c(-c3c[nH]c(C)n3)nc3ccc(Br)cn23)cc1 [pck-9295-016]	pIC50 [1, 7]: 6.27; pIC50 (TRIM24; [8]): 6.09
–	–	CC(C)(C)Nc1c(-c2c(O)ccc3ccccc23)nc2ccccn12 [pck-9295-029]	pIC50 [1, 7]: 5.13; pIC50 (TRIM24; [8]): 5.11
–	–	COCCNc1c(-c2ccco2)nc2ccc(C(=O)OC)cn12 [pck-9295-032]	pIC50 [1, 7]: 4.66
–	–	CCOC(=O)CNc1c(-c2ccco2)nc2ccc(C(=O)OC)cn12 [pck-9295-035]	pIC50 [1, 7]: 4.97; pIC50 (TRIM24; [8]): 5.28
–	–	COC(=O)c1ccc2nc(-c3nc[nH]c3C)c(NCCN3CCOCC3)n2c1 [pck-9295-060]	pIC50 [1, 6]: 5.71; pIC50 (TRIM24; [9]): 6.51
–	–	Cc1nc[nH]c1-c1nc2ccc(C(=O)NN)cn2c1NCCN1CCOCC1 [pck-9295-134]	pIC50 [1, 6]: 5.89; pIC50 (TRIM24; [9]): 6.52
–	–	COc1ccc(CCNc2c(-c3nc(C)n4ccccc34)nc3ccccn23)cc1OC [pck-9295-173]	pIC50 [1, 6]: 4.35; pIC50 (TRIM24; [9]): 5.02
–	–	COc1ccc(CCNc2c(-c3cn(S(=O)(=O)c4ccc(C)cc4)c4ccccc34)nc3ccccn23)cc1OC [pck-9295-174]	pIC50 [1, 6]: 6.26; pIC50 (TRIM24; [9]): 6.23
–	–	COC(=O)c1ccc2nc(-c3cn(S(=O)(=O)c4ccc(C)cc4)c4ccccc34)c(NCc3ccccc3)n2c1 [pck-9295-175]	pIC50 [1, 6]: 6.50; pIC50 (TRIM24; [9]): 6.38
